Test results as given in patent publication US8952024B2, “Herbicidal pyrimidone derivatives” (E I du Pont de Nemours and Company, priority 2009, dated 2015).

Key:
Format in all cases: in vivo
[1] = test system: barnyardgrass (Echinochloa crus-galli); assay: Test A pre-/postemergence plant response
Procedure, shortened: (§1)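 Pre: directed soil spray on seeded loam/sand blend. Post: same formulation (non-phytotoxic solvent + surfactant) on 2–10 cm plants, 1–2 leaf stage. Greenhouse ~10 d; visual injury score 0–100 vs untreated.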

[2] = test system: wheat (Triticum aestivum); assay: Test A pre-/postemergence plant response
Procedure, shortened: as §1

[3] = test system: giant foxtail (Setaria faberii); assay: Test A pre-/postemergence plant response
Procedure, shortened: as §1

corn (Zea mays) = assay: Test A pre-/postemergence plant response
Procedure, shortened: as §1

[4] = test system: pigweed (Amaranthus retroflexus); assay: Test A pre-/postemergence plant response
Procedure, shortened: as §1

[5] = test system: large crabgrass (Digitaria sanguinalis); assay: Test A pre-/postemergence plant response
Procedure, shortened: as §1

[6] = test system: morningglory (Ipomoea spp.); assay: Test A pre-/postemergence plant response
Procedure, shortened: as §1

[7] = test system: velvetleaf (Abutilon theophrasti); assay: Test A pre-/postemergence plant response
Procedure, shortened: as §1

[8] = test system: barnyardgrass (Echinochloa crus-galli); assay: Test B flooded paddy test; conditions: for Plant response rating, Flood, Barnyardgrass: 250 g ai/ha, flooded paddy test, visual rating on 0 to 100 scale (0 no effect, 100 complete control) after 13 to 15 days; for Plant response rating, Barnyardgrass: Flood (flooded paddy test), 13 to 15 days
Procedure, shortened: (§2)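 Plants were grown to the 2-leaf stage, then pots were flooded to 3 cm above the soil and compounds were applied directly into the paddy water. That depth was held throughout. After 13 to 15 days in a greenhouse, injury was visually rated against controls on a 0–100 scale.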

[9] = test system: umbrella sedge (Cyperus difformis); assay: Test B flooded paddy test; conditions: for Plant response rating, Flood, Sedge, Umbrella: 250 g ai/ha, flooded paddy test, visual rating on 0 to 100 scale (0 no effect, 100 complete control) after 13 to 15 days; for Plant response rating, Sedge, Umbrella: Flood (flooded paddy test), 13 to 15 days
Procedure, shortened: as §2

rice (Oryza sativa) = assay: Test B flooded paddy test; conditions: for Plant response rating, Flood, Rice: 250 g ai/ha, flooded paddy test, visual rating on 0 to 100 scale (0 no effect, 100 complete control) after 13 to 15 days; for Plant response rating, Rice: Flood (flooded paddy test), 13 to 15 days
Procedure, shortened: as §2

[10] = test system: ducksalad (Heteranthera limosa); assay: Test B flooded paddy test; conditions: for Plant response rating, Flood, Ducksalad: 250 g ai/ha, flooded paddy test, visual rating on 0 to 100 scale (0 no effect, 100 complete control) after 13 to 15 days; for Plant response rating, Ducksalad: Flood (flooded paddy test), 13 to 15 days
Procedure, shortened: as §2

[11] = Postemergence, 125 g ai/ha, 0 to 100 scale where 0 is no effect and 100 is complete control
[12] = Postemergence, 500 g ai/ha, visual injury, 0 to 100 scale (0 no effect, 100 complete control), approx. ten days
[13] = Preemergence, 125 g ai/ha, 0 to 100 scale, 0 = no effect, 100 = complete control
[14] = Preemergence, 500 g ai/ha, 0 to 100 scale, 0 = no effect, 100 = complete control
[15] = 62 g ai/ha, scale of 0 to 100 where 0 is no effect and 100 is complete control
[16] = 125 g ai/ha, scale 0 to 100, 0 is no effect, 100 is complete control
[17] = Flood, 31 g ai/ha, scale 0 to 100 (0 no effect, 100 complete control)
[18] = Postemergence, 125 g ai/ha, visual injury, 0 to 100 scale (0 no effect, 100 complete control), approx. ten days
[19] = Postemergence, 500 g ai/ha, 0 to 100 scale, 0 = no effect, 100 = complete control, approx. ten days
[20] = Preemergence, 500 g ai/ha, visual injury, 0 to 100 scale (0 no effect, 100 complete control), approx. ten days
[21] = 31 g ai/ha, scale of 0 to 100 where 0 is no effect and 100 is complete control
[22] = 62 g ai/ha, scale 0 to 100, 0 is no effect, 100 is complete control

## Cc1cccc(-c2ncc(C(=O)C3=C(O)CCCC3=O)c(=O)n2-c2ccccc2C)c1 [Compound 210]
[1]; [11]
  Plant response rating, Barnyardgrass: 40
[1]; [12]
  Barnyardgrass plant response rating: 90
[1]; [13]
  Plant response rating, Barnyardgrass: 10
[1]; [14]
  Plant response rating, Barnyardgrass: 70
[2]; [11]
  Plant response rating, Wheat: 0
[2]; [12]
  Wheat plant response rating: 10
[2]; [13]
  Plant response rating, Wheat: 0
[2]; [14]
  Plant response rating, Wheat: 0
[3]; [11]
  Plant response rating, Foxtail, Giant: 10
[3]; [12]
  Foxtail, Giant plant response rating: 70
[3]; [13]
  Plant response rating, Foxtail, Giant: 20
[3]; [14]
  Plant response rating, Foxtail, Giant: 90
Corn (Zea mays); [11]
  Plant response rating, Corn: 0
Corn (Zea mays); [12]
  Corn plant response rating: 0
Corn (Zea mays); [13]
  Plant response rating, Corn: 0
Corn (Zea mays); [14]
  Plant response rating, Corn: 0
[4]; [11]
  Plant response rating, Pigweed: 90
[4]; [12]
  Pigweed plant response rating: 100
[4]; [13]
  Plant response rating, Pigweed: 60
[4]; [14]
  Plant response rating, Pigweed: 100
[5]; [11]
  Plant response rating, Crabgrass, Large: 10
[5]; [12]
  Crabgrass, Large plant response rating: 30
[5]; [13]
  Plant response rating, Crabgrass, Large: 10
[5]; [14]
  Plant response rating, Crabgrass, Large: 50
[6]; [11]
  Plant response rating, Morningglory: 50
[6]; [12]
  Morningglory plant response rating: 100
[6]; [13]
  Plant response rating, Morningglory: 0
[6]; [14]
  Plant response rating, Morningglory: 50
[7]; [11]
  Plant response rating, Velvetleaf: 70
[7]; [12]
  Velvetleaf plant response rating: 70
[7]; [13]
  Plant response rating, Velvetleaf: 40
[7]; [14]
  Plant response rating, Velvetleaf: 60
[8]
  Plant response rating, Flood, Barnyardgrass: 40
[8]; [15]
  Plant response rating, Barnyardgrass: 0
[8]; [16]
  Plant response rating, Barnyardgrass: 20
[8]; [17]
  Barnyardgrass plant response rating: 0
[9]
  Plant response rating, Flood, Sedge, Umbrella: 80
[9]; [15]
  Plant response rating, Sedge, Umbrella: 75
[9]; [16]
  Plant response rating, Sedge, Umbrella: 75
[9]; [17]
  Sedge, Umbrella plant response rating: 50
Rice (Oryza sativa)
  Plant response rating, Flood, Rice: 25
Rice (Oryza sativa); [15]
  Plant response rating, Rice: 0
Rice (Oryza sativa); [16]
  Plant response rating, Rice: 20
Rice (Oryza sativa); [17]
  Rice plant response rating: 0
[10]
  Plant response rating, Flood, Ducksalad: 90
[10]; [15]
  Plant response rating, Ducksalad: 85
[10]; [16]
  Plant response rating, Ducksalad: 90
[10]; [17]
  Ducksalad plant response rating: 75

## O=C1CCCC(O)=C1C(=O)c1cnc(-c2ccccc2)n(-c2cccc(F)c2)c1=O [Compound 22]
[1]; [18]
  Barnyardgrass plant response rating: 10
[1]; [19]
  Plant response rating, Barnyardgrass: 70
[1]; [13]
  Plant response rating, Barnyardgrass: 10
[1]; [20]
  Plant response rating, Barnyardgrass: 100
[2]; [18]
  Wheat plant response rating: 0
[2]; [19]
  Plant response rating, Wheat: 0
[2]; [13]
  Plant response rating, Wheat: 0
[2]; [20]
  Plant response rating, Wheat: 0
[3]; [18]
  Foxtail, Giant plant response rating: 30
[3]; [19]
  Plant response rating, Foxtail, Giant: 80
[3]; [13]
  Plant response rating, Foxtail, Giant: 20
[3]; [20]
  Plant response rating, Foxtail, Giant: 80
Corn (Zea mays); [18]
  Corn plant response rating: 0
Corn (Zea mays); [19]
  Plant response rating, Corn: 40
Corn (Zea mays); [13]
  Plant response rating, Corn: 0
Corn (Zea mays); [20]
  Plant response rating, Corn: 0
[4]; [18]
  Pigweed plant response rating: 80
[4]; [19]
  Plant response rating, Pigweed: 100
[4]; [13]
  Plant response rating, Pigweed: 70
[4]; [20]
  Plant response rating, Pigweed: 90
[5]; [18]
  Crabgrass, Large plant response rating: 40
[5]; [19]
  Plant response rating, Crabgrass, Large: 80
[5]; [13]
  Plant response rating, Crabgrass, Large: 40
[5]; [20]
  Plant response rating, Crabgrass, Large: 90
[6]; [18]
  Morningglory plant response rating: 30
[6]; [19]
  Plant response rating, Morningglory: 100
[6]; [13]
  Plant response rating, Morningglory: 20
[6]; [20]
  Plant response rating, Morningglory: 70
[7]; [18]
  Velvetleaf plant response rating: 100
[7]; [19]
  Plant response rating, Velvetleaf: 100
[7]; [13]
  Plant response rating, Velvetleaf: 30
[7]; [20]
  Plant response rating, Velvetleaf: 100
[8]
  Plant response rating, Flood, Barnyardgrass: 0
[8]; [21]
  Plant response rating, Barnyardgrass: 0
[8]; [22]
  Plant response rating, Barnyardgrass: 0
[8]; [16]
  Plant response rating, Barnyardgrass: 0
[9]
  Plant response rating, Flood, Sedge, Umbrella: 65
[9]; [21]
  Plant response rating, Sedge, Umbrella: 0
[9]; [22]
  Plant response rating, Sedge, Umbrella: 30
[9]; [16]
  Plant response rating, Sedge, Umbrella: 40
Rice (Oryza sativa)
  Plant response rating, Flood, Rice: 0
Rice (Oryza sativa); [21]
  Plant response rating, Rice: 0
Rice (Oryza sativa); [22]
  Plant response rating, Rice: 0
Rice (Oryza sativa); [16]
  Plant response rating, Rice: 0
[10]
  Plant response rating, Flood, Ducksalad: 60
[10]; [21]
  Plant response rating, Ducksalad: 0
[10]; [22]
  Plant response rating, Ducksalad: 20
[10]; [16]
  Plant response rating, Ducksalad: 30
